Literature values as cited in US12527803B2, “Testosterone dodecanoate compositions and methods” (priority 2023, dated 2026).

Experiments:
[1] = system: Enterhemorrhagic E. Coli (EHEC) biofilms; conditions: p<0.001 for lauric acid
[2] = system: normotensive and hypertensive rats
[3] = system: prostatic hyperplasia induced by testosterone; conditions: rats
[4] = system: Propionibacterium acnes, Staphylococcus aureus, Eschericia coli, Streptococci, Mycobacterium tuberculosis, Clostridium difficile and other bacteria
[5] = system: Candida albicans, Aspergillus niger, and Fusarium spp
[6] = system: Vesicular stomatitis virus, Herpes simplex virus, Visna virus, Respiratory syncytial virus, and Junin virus

SMILES	Repression of EHEC biofilms versus control [1]	Effect on BP and heart rate ([2]; normotensive and hypertensive rats)	Effect on HDL levels ([2]; rat, in vivo)	Effect on prostatic hyperplasia induced by testosterone [3]	Antibacterial benefit [4]	Antifungal benefit [5]	Antiviral benefit [6]
CCCCCCCCCCC(=O)O [undecanoic acid]	did not	–	–	–	–	–	–
CCCCCCCCCCCC(=O)O [lauric acid]	repressed EHEC biofilms significantly differently than the control	reduce the BP and heart rate	increase HDL levels	prevent the prostatic hyperplasia induced by testosterone	antibacterial benefit	antifungal benefit	antiviral benefit
